Experimental data published in PubChem BioAssay AID248 (DTP/NCI, 2004).
“And” between values parts separate entries of the source, which are not always exact repeats. Identical values can stand only once. Inconclusive results and toxic doses are left out. Cut-off read from the data, not from the text of the source: active = T/C of 150% or more; inactive = T/C below 125%.

System: L1210 leukemia ip in BDF1 mice, survival T/C
Assay: NCI In Vivo Anticancer Drug Screen. Data for tumor model L1210 Leukemia (intraperitoneal) in B6D2F1 (BDF1) mice
Conditions: endpoint: mean survival time, higher = longer survival
How it was run: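 Tumor cells were implanted, animals were treated, and survival was followed. The result divides the treated measurement by the vehicle-control measurement.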

[1] = dose: 100.0 mg/kg/injection, schedule: Q01DX001 (ip), vehicle: saline
[2] = dose: 100.0 mg/kg/injection, schedule: Q01DX009 (ip), vehicle: Klucel (hydroxypropylcellulose) (HPC)
[3] = dose: 100.0 mg/kg/injection, schedule: Q04DX003 (ip), vehicle: Klucel (hydroxypropylcellulose) (HPC)
[4] = dose: 200.0 mg/kg/injection, schedule: Q01DX009 (ip), vehicle: Klucel (hydroxypropylcellulose) (HPC)
[5] = dose: 200.0 mg/kg/injection, schedule: Q04DX003 (ip), vehicle: Klucel (hydroxypropylcellulose) (HPC)
[6] = dose: 400.0 mg/kg/injection, schedule: Q01DX009 (ip), vehicle: Klucel (hydroxypropylcellulose) (HPC)
[7] = dose: 400.0 mg/kg/injection, schedule: Q04DX003 (ip), vehicle: Klucel (hydroxypropylcellulose) (HPC)
[8] = dose: 100.0 mg/kg/injection, schedule: Q04DX002 (ip), vehicle: gum acacia
[9] = dose: 200.0 mg/kg/injection, schedule: Q04DX002 (ip), vehicle: gum acacia
[10] = dose: 400.0 mg/kg/injection, schedule: Q04DX002 (ip), vehicle: gum acacia
[11] = dose: 200.0 mg/kg/injection, schedule: Q04DX003 (ip), vehicle: saline with Tween-80
[12] = dose: 100.0 mg/kg/injection, schedule: Q01DX001 (ip), vehicle: carboxymethylcellulose (CMC)
[13] = dose: 200.0 mg/kg/injection, schedule: Q01DX001 (ip), vehicle: carboxymethylcellulose (CMC)
[14] = dose: 400.0 mg/kg/injection, schedule: Q01DX001 (ip), vehicle: carboxymethylcellulose (CMC)
[15] = dose: 100.0 mg/kg/injection, schedule: Q04DX002 (ip), vehicle: saline with Tween-80
[16] = dose: 200.0 mg/kg/injection, schedule: Q04DX002 (ip), vehicle: saline with Tween-80
[17] = dose: 400.0 mg/kg/injection, schedule: Q04DX002 (ip), vehicle: saline with Tween-80
[18] = dose: 100.0 mg/kg/injection, schedule: Q01DX001 (ip), vehicle: Klucel (hydroxypropylcellulose) (HPC)
[19] = dose: 200.0 mg/kg/injection, schedule: Q01DX001 (ip), vehicle: Klucel (hydroxypropylcellulose) (HPC)
[20] = dose: 400.0 mg/kg/injection, schedule: Q01DX001 (ip), vehicle: Klucel (hydroxypropylcellulose) (HPC)
[21] = dose: 100.0 mg/kg/injection, schedule: Q04DX002 (ip), vehicle: saline
[22] = dose: 75.0 mg/kg/injection, schedule: Q01DX001 (ip), vehicle: saline
[23] = dose: 150.0 mg/kg/injection, schedule: Q01DX001 (ip), vehicle: saline
[24] = dose: 300.0 mg/kg/injection, schedule: Q01DX001 (ip), vehicle: saline

Measured: T/C

[N-]=[N+]=CC(=O)NCC(=O)NN=C(CO)CO
inactive: dose: 180.0 mg/kg/injection, schedule: Q01DX009 (ip), vehicle: water 118 % of control | dose: 265.0 mg/kg/injection, schedule: Q01DX009 (ip), vehicle: water 122 % of control

Cc1ccc(NNP(Cl)(c2ccccc2)(c2ccccc2)c2ccccc2)cc1
inactive: dose: 50.0 mg/kg/injection, schedule: Q01DX001 (ip), vehicle: saline 92 % of control | [1] 97 % of control

[O-]c1c[n+](C23CCC(c4ccccc42)c2ccccc23)no1
inactive: [2] 102 % of control | [3] 100 % of control | [4] 102 % of control | [5] 103 % of control | [6] 95 % of control | [7] 100 % of control

O=C(O)c1ccccc1C(=O)c1cccc2ccccc12
inactive: [8] 102 % of control | [9] 104 % of control | [10] 95 % of control

NC(=O)n1cncn1
inactive: [1] 90 % of control | dose: 100.0 mg/kg/injection, schedule: Q01DX009 (ip), vehicle: acetone 89 % of control | dose: 200.0 mg/kg/injection, schedule: Q01DX001 (ip), vehicle: saline 107 % of control | dose: 200.0 mg/kg/injection, schedule: Q01DX009 (ip), vehicle: acetone 100 % of control | dose: 400.0 mg/kg/injection, schedule: Q01DX001 (ip), vehicle: saline 100 % of control | dose: 400.0 mg/kg/injection, schedule: Q01DX009 (ip), vehicle: acetone 91 % of control

O=C(O)c1scc2c1CCCC2
inactive: dose: 100.0 mg/kg/injection, schedule: Q04DX003 (ip), vehicle: saline with Tween-80 97 % of control | [11] 87 % of control

Nc1ncnc2c1ncn2C1OC(CO)C2OP(=O)(O)OC21 (centres undefined)
inactive: dose: 100.0 mg/kg/injection, schedule: Q01DX005 (ip), vehicle: saline 95 % of control | dose: 200.0 mg/kg/injection, schedule: Q01DX005 (ip), vehicle: saline 118 % of control

O=C(Nc1c(Br)cc2c(c1Br)Cc1cc([N+](=O)[O-])ccc1-2)C(Cl)Cl
inactive: [12] 98 % of control | [13] 107 % of control | [14] 109 % of control

NC1(C(=O)O)Cc2ccccc2B(O)OC1=O (centres undefined)
inactive: [3] 98 % of control | [5] 96 % of control | [7] 106 % of control

CCC(C)NC(=O)/C=C\C(=O)O (centres undefined)
inactive: [15] 95 % of control | [16] 92 % of control | [17] 100 % of control

CCCC(C(O)CC)[N+](=O)[O-] (centres undefined)
inactive: [18] 95 % of control | [19] 97 % of control | [20] 101 % of control

CCC(Oc1ccccc1OC)C(=O)O (centres undefined)
inactive: [18] 105 % of control | [19] 103 % of control | [20] 103 % of control

COC(=O)c1ccccc1NC(=O)Nc1cccc(Cl)c1C
inactive: [2] 86 % of control | [4] 95 % of control

COC(=O)c1cccc(-c2cccc(C(=O)OC)c2)c1
inactive: [12] 96 % of control | [13] 96 % of control | [14] 100 % of control

CCOC(=O)/C(C#N)=C/c1cccn1Cc1cc(OC)cc(OC)c1
inactive: dose: 25.0 mg/kg/injection, schedule: Q04DX002 (ip), vehicle: saline 111 % of control | dose: 50.0 mg/kg/injection, schedule: Q04DX002 (ip), vehicle: saline 101 % of control | [21] 94 % of control

O=C(O)C1C(c2ccccc2)=C1c1ccc(Br)cc1 (centres undefined)
inactive: [2] 100 % of control | [3] 93 % of control | [4] 118 % of control | [5] 102 % of control | [6] 101 % of control | [7] 88 % of control

Nc1ccccc1CC(C(=O)O)c1ccc2c(c1)OCO2 (centres undefined)
inactive: [22] 105 % of control | dose: 75.0 mg/kg/injection, schedule: Q01DX009 (ip), vehicle: acetone 108 % of control | [23] 94 % of control | dose: 150.0 mg/kg/injection, schedule: Q01DX009 (ip), vehicle: acetone 103 % of control | [24] 89 % of control | dose: 300.0 mg/kg/injection, schedule: Q01DX009 (ip), vehicle: acetone 103 % of control

O=C(OCc1ccccc1)Oc1ccc2ccccc2c1
inactive: [3] 102 % of control | [5] 95 % of control | [7] 95 % of control

N#CCCN(CCCN1CCOCC1)CN1C(=O)c2ccccc2C1=O
inactive: [21] 104 % of control | dose: 200.0 mg/kg/injection, schedule: Q04DX002 (ip), vehicle: saline 93 % of control | dose: 400.0 mg/kg/injection, schedule: Q04DX002 (ip), vehicle: saline 111 % of control

N#Cc1c(SCC(=O)O)nsc1SCC(=O)O
inactive: [8] 97 % of control | [9] 94 % of control | [10] 100 % of control

OC1CSC2=[N+]1CCS2 (centres undefined)
inactive: [22] 98 % of control | [23] 112 % of control | [24] 111 % of control

NC1CCC1N (centres undefined)
inactive: dose: 100.0 mg/kg/injection, schedule: Q04DX003 (ip), vehicle: saline 104 % of control | dose: 200.0 mg/kg/injection, schedule: Q04DX003 (ip), vehicle: saline 108 % of control | dose: 400.0 mg/kg/injection, schedule: Q04DX003 (ip), vehicle: saline 98 % of control

O=S(=O)(F)c1cc(CBr)ccc1Cl
inactive: [15] 98 % of control | [16] 95 % of control | [17] 101 % of control

CC(=O)NC1C(OC(C)=O)OC(COC(c2ccccc2)(c2ccccc2)c2ccccc2)C(O)C1OC(C)=O (centres undefined)
inactive: dose: 6.25 mg/kg/injection, schedule: Q01DX009 (ip), vehicle: saline with Tween-80 96 % of control | dose: 12.5 mg/kg/injection, schedule: Q01DX009 (ip), vehicle: saline with Tween-80 93 % of control | dose: 25.0 mg/kg/injection, schedule: Q01DX009 (ip), vehicle: saline with Tween-80 93 % of control | dose: 25.0 mg/kg/injection, schedule: Q04DX003 (ip), vehicle: saline with Tween-80 109 % of control | dose: 50.0 mg/kg/injection, schedule: Q01DX009 (ip), vehicle: saline with Tween-80 93 % of control | dose: 50.0 mg/kg/injection, schedule: Q04DX003 (ip), vehicle: saline with Tween-80 121 % of control | [11] 91 % of control | dose: 400.0 mg/kg/injection, schedule: Q04DX003 (ip), vehicle: saline with Tween-80 88 % of control

NC(N)=NCCCNCCCN=C(N)N
inactive: dose: 17.5 mg/kg/injection, schedule: Q01DX Z (oral), vehicle: saline 100 % of control | dose: 35.0 mg/kg/injection, schedule: Q01DX Z (oral), vehicle: saline 101 % of control | dose: 70.0 mg/kg/injection, schedule: Q01DX Z (oral), vehicle: saline 114 % of control | dose: 140.0 mg/kg/injection, schedule: Q01DX Z (oral), vehicle: saline 117 % of control

O=C(CCCc1ccc(N(CCCl)CCCl)cc1)NCc1ccc(N(CCCl)CCCl)cc1
inactive: dose: 4.0 mg/kg/injection, schedule: Q12HX018 (sc), vehicle: other 103 % of control | dose: 6.0 mg/kg/injection, schedule: Q12HX018 (sc), vehicle: other 103 % of control | dose: 8.0 mg/kg/injection, schedule: Q12HX018 (sc), vehicle: other 100 % of control

COc1ccc(C2OCC(C)([N+](=O)[O-])CO2)cc1 (centres undefined)
inactive: dose: 50.0 mg/kg/injection, schedule: Q01DX001 (ip), vehicle: Klucel (hydroxypropylcellulose) (HPC) 94 % of control | dose: 50.0 mg/kg/injection, schedule: Q04DX002 (ip), vehicle: Klucel (hydroxypropylcellulose) (HPC) 103 % of control | [18] 96 % of control | dose: 100.0 mg/kg/injection, schedule: Q04DX002 (ip), vehicle: Klucel (hydroxypropylcellulose) (HPC) 96 % of control and 102 % of control | [19] 98 % of control | dose: 200.0 mg/kg/injection, schedule: Q04DX002 (ip), vehicle: Klucel (hydroxypropylcellulose) (HPC) 96 % of control and 100 % of control | [20] 98 % of control | dose: 400.0 mg/kg/injection, schedule: Q04DX002 (ip), vehicle: Klucel (hydroxypropylcellulose) (HPC) 99 % of control and 121 % of control
